Measured values published in paper PMC6072100, “Exploring the links between peptoid antibacterial activity and toxicity” (MedChemComm, 2017).
Values joined by “and” are separate entries in the source; they are usually repeats but may differ in a detail not shown here. Identical values can stand only once. Like-named read-outs stand apart in the source and are kept apart here. Square brackets hold non-standard residues; d marks the D form. Peptide text beside a SMILES is read from it. Gly(Nα-4-Cl-benzyl) = O=C(O)CNCc1ccc(Cl)cc1; N(4-F-Bzl)Gly = O=C(O)CNCc1ccc(F)cc1; Nspe = C[C@H](NCC(=O)O)c1ccccc1; NhArg = N=C(N)NCCCCNCC(=O)O; NPentylGly = CCCCCNCC(=O)O; Nlys = NCCCCNCC(=O)O

What was measured:
Format in all cases: cell-based
[1] = tested on: Staphylococcus epidermidis (laboratory strain from clinical isolate); conditions: 16 h
Procedure, shortened: (§1)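 Broth microdilution in Iso-sensitest broth: overnight cultures adjusted to A650nm 0.07 (0.5 McFarland), diluted ten-fold, and mixed 1:1 with 2-fold serial peptoid dilutions (final 2–100 µM, from DMSO stock). Plates were incubated 16 h at 37 °C with shaking and growth read by absorbance, in triplicate.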

[2] = tested on: Pseudomonas aeruginosa PA01 (ATCC 15692)
Procedure, shortened: as §1

[3] = tested on: Staphylococcus aureus (3R7089 strain Oxford/ATCC9144)
Procedure, shortened: as §1

[4] = tested on: Escherichia coli K-12 wild-type strain (W3110/ATCC27325); conditions: for MIC E. coli: lowest concentration completely inhibiting growth, 37 °C, 16 h, range 2–100 μM
Procedure, shortened: as §1

[5] = lowest concentration completely inhibiting growth, 37 °C, range 2–100 μM
[6] = lowest concentration completely inhibiting growth, 37 °C, 16 h, range 2–100 μM

Row | Compound | MIC S. epidermidis [1, 5] [µM] | MIC P. aeruginosa ([2]; ATCC 15692, 16 h) [µM] | MIC P. aeruginosa [2, 6] [µM] | MIC S. aureus [3, 6] [µM] | MIC E. coli [4] | MIC S. aureus ([3]; ATCC9144, 16 h) [µM] | MIC S. epidermidis ([1]; laboratory strain from clinical isolate) [µM] | activity against P. aeruginosa (in words) [2] | activity against E. coli (in words) [4]
1 | NCCCCNCC(=O)N(CC(=O)N(CC(=O)N(CCCCN)CC(=O)N(CC(=O)N(CC(=O)N(CCCCN)CC(=O)N(CC(=O)N(CC(=O)N(CCCCN)CC(=O)N(CC(=O)N(CC(N)=O)Cc1ccc(Cl)cc1)Cc1ccc(Cl)cc1)Cc1ccc(Cl)cc1)Cc1ccc(Cl)cc1)Cc1ccc(Cl)cc1)Cc1ccc(Cl)cc1)Cc1ccc(Cl)cc1)Cc1ccc(Cl)cc1 [Peptoid 20, (NLysNpcbNpcb)4] (H-[Nlys][Gly(Nα-4-Cl-benzyl)][Gly(Nα-4-Cl-benzyl)][Nlys][Gly(Nα-4-Cl-benzyl)][Gly(Nα-4-Cl-benzyl)][Nlys][Gly(Nα-4-Cl-benzyl)][Gly(Nα-4-Cl-benzyl)][Nlys][Gly(Nα-4-Cl-benzyl)][Gly(Nα-4-Cl-benzyl)]-NH2) | 6 | >100 | 100 | 25 | 100 µM and > 100 µM | – | – | – | –
2 | NCCCCNCC(=O)N(CC(=O)N(CC(=O)N(CCCCN)CC(=O)N(CC(=O)N(CC(=O)N(CCCCN)CC(=O)N(CC(=O)N(CC(N)=O)Cc1ccc(Cl)cc1)Cc1ccc(Cl)cc1)Cc1ccc(Cl)cc1)Cc1ccc(Cl)cc1)Cc1ccc(Cl)cc1)Cc1ccc(Cl)cc1 [Peptoid 21, (NLysNpcbNpcb)3] (H-[Nlys][Gly(Nα-4-Cl-benzyl)][Gly(Nα-4-Cl-benzyl)][Nlys][Gly(Nα-4-Cl-benzyl)][Gly(Nα-4-Cl-benzyl)][Nlys][Gly(Nα-4-Cl-benzyl)][Gly(Nα-4-Cl-benzyl)]-NH2) | 2 | – | 25 | 3 | 50 µM | – | – | – | –
3 | NCCCCNCC(=O)N(CC(=O)N(CC(=O)N(CCCCN)CC(=O)N(CC(=O)N(CC(=O)N(CCCCN)CC(=O)N(CC(=O)N(CC(=O)N(CCCCN)CC(=O)N(CC(=O)N(CC(N)=O)Cc1ccc(F)cc1)Cc1ccc(F)cc1)Cc1ccc(F)cc1)Cc1ccc(F)cc1)Cc1ccc(F)cc1)Cc1ccc(F)cc1)Cc1ccc(F)cc1)Cc1ccc(F)cc1 [Peptoid 22, (NLysNpfbNpfb)4] (H-[Nlys][N(4-F-Bzl)Gly][N(4-F-Bzl)Gly][Nlys][N(4-F-Bzl)Gly][N(4-F-Bzl)Gly][Nlys][N(4-F-Bzl)Gly][N(4-F-Bzl)Gly][Nlys][N(4-F-Bzl)Gly][N(4-F-Bzl)Gly]-NH2) | 1 | – | 25 | 2 | 13 µM | 2 | – | – | –
4 | NCCCCNCC(=O)N(CC(=O)N(CC(=O)N(CCCCN)CC(=O)N(CC(=O)N(CC(=O)N(CCCCN)CC(=O)N(CC(=O)N(CC(N)=O)Cc1ccc(F)cc1)Cc1ccc(F)cc1)Cc1ccc(F)cc1)Cc1ccc(F)cc1)Cc1ccc(F)cc1)Cc1ccc(F)cc1 [Peptoid 23, (NLysNpfbNpfb)3] (H-[Nlys][N(4-F-Bzl)Gly][N(4-F-Bzl)Gly][Nlys][N(4-F-Bzl)Gly][N(4-F-Bzl)Gly][Nlys][N(4-F-Bzl)Gly][N(4-F-Bzl)Gly]-NH2) | 3 | – | 25 | 3 | 13 µM | – | – | – | –
5 | NCCCCNCC(=O)N(CC(=O)N(CC(=O)N(CCCCN)CC(=O)N(CC(=O)N(CC(=O)N(CCCCN)CC(=O)N(CC(=O)N(CC(=O)N(CCCCN)CC(=O)N(CC(=O)N(CC(N)=O)Cc1cccc(F)c1)Cc1cccc(F)c1)Cc1cccc(F)c1)Cc1cccc(F)c1)Cc1cccc(F)c1)Cc1cccc(F)c1)Cc1cccc(F)c1)Cc1cccc(F)c1 [Peptoid 24, (NLysNmfbNmfb)4] | 3 | – | 25 | 6 | 25 µM | – | – | – | –
6 | NCCCCNCC(=O)N(CC(=O)N(CC(=O)N(CCCCN)CC(=O)N(CC(=O)N(CC(=O)N(CCCCN)CC(=O)N(CC(=O)N(CC(N)=O)Cc1cccc(F)c1)Cc1cccc(F)c1)Cc1cccc(F)c1)Cc1cccc(F)c1)Cc1cccc(F)c1)Cc1cccc(F)c1 [Peptoid 25, (NLysNmfbNmfb)3] | 2 | – | 25 | 6 | 13 µM | – | – | – | –
7 | C[C@@H](c1ccccc1)N(CC(N)=O)C(=O)CN(Cc1ccc(F)cc1)C(=O)CN(CCCCN)C(=O)CN(C(=O)CN(Cc1ccc(F)cc1)C(=O)CN(CCCCN)C(=O)CN(C(=O)CN(Cc1ccc(F)cc1)C(=O)CN(CCCCN)C(=O)CN(C(=O)CN(Cc1ccc(F)cc1)C(=O)CNCCCCN)[C@@H](C)c1ccccc1)[C@@H](C)c1ccccc1)[C@@H](C)c1ccccc1 [Peptoid 26, (NLysNpfbNspe)4] | 2 | – | 13 | 2 | 13 µM | – | – | – | –
8 | C[C@@H](c1ccccc1)N(CC(N)=O)C(=O)CN(Cc1ccc(F)cc1)C(=O)CN(CCCCN)C(=O)CN(C(=O)CN(Cc1ccc(F)cc1)C(=O)CN(CCCCN)C(=O)CN(C(=O)CN(Cc1ccc(F)cc1)C(=O)CNCCCCN)[C@@H](C)c1ccccc1)[C@@H](C)c1ccccc1 [Peptoid 27, (NLysNpfbNspe)3] | 2 | – | 25 | 3 | 25 µM | – | – | – | –
9 | C[C@@H](c1ccccc1)N(CC(N)=O)C(=O)CN(C(=O)CN(CCCCN)C(=O)CN(Cc1ccc(F)cc1)C(=O)CN(Cc1ccc(F)cc1)C(=O)CN(CCCCN)C(=O)CN(C(=O)CN(C(=O)CN(CCCCN)C(=O)CN(Cc1ccc(F)cc1)C(=O)CN(Cc1ccc(F)cc1)C(=O)CNCCCCN)[C@@H](C)c1ccccc1)[C@@H](C)c1ccccc1)[C@@H](C)c1ccccc1 [Peptoid 28, [(NLysNpfbNpfb)(NLysNspeNspe)]2] | 1 | – | 50 | 2 | 6 µM | – | < 1 | – | –
10 | C[C@@H](c1ccccc1)N(CC(N)=O)C(=O)CN(C(=O)CN(CCCCN)C(=O)CN(Cc1ccc(F)cc1)C(=O)CN(Cc1ccc(F)cc1)C(=O)CN(CCCCN)C(=O)CN(C(=O)CN(C(=O)CNCCCCN)[C@@H](C)c1ccccc1)[C@@H](C)c1ccccc1)[C@@H](C)c1ccccc1 [Peptoid 29, (NLysNspeNspe)(NLysNpfbNpfb)(NLysNspeNspe)] | 2 | – | 25 | 3 | 13 µM | – | – | – | –
11 | CCCCCNCC(=O)N(CC(=O)N(CC(=O)N(CCCCN)CC(=O)N(CC(=O)N(CC(=O)N(CCCCN)CC(=O)N(CC(=O)N(CC(=O)N(CCCCN)CC(=O)N(CC(=O)N(CC(N)=O)[C@@H](C)c1ccccc1)[C@@H](C)c1ccccc1)[C@@H](C)c1ccccc1)[C@@H](C)c1ccccc1)[C@@H](C)c1ccccc1)[C@@H](C)c1ccccc1)[C@@H](C)c1ccccc1)[C@@H](C)c1ccccc1 [Peptoid 30, (NamyNspeNspe)[(NLysNspeNspe)]3] | 2 | – | 50 | 2 | 50 µM | – | – | – | –
12 | CCCCCNCC(=O)N(CC(=O)N(CC(=O)N(CCCCC)CC(=O)N(CC(=O)N(CC(=O)N(CCCCN)CC(=O)N(CC(=O)N(CC(=O)N(CCCCN)CC(=O)N(CC(=O)N(CC(N)=O)[C@@H](C)c1ccccc1)[C@@H](C)c1ccccc1)[C@@H](C)c1ccccc1)[C@@H](C)c1ccccc1)[C@@H](C)c1ccccc1)[C@@H](C)c1ccccc1)[C@@H](C)c1ccccc1)[C@@H](C)c1ccccc1 [Peptoid 31, (NamyNspeNspe)2(NLysNspeNspe)2] | 1 | >100 | 100 | 2 | >100 µM | – | – | – | –
13 | CCCCCN(CC(=O)N(CC(=O)N(CC(=O)N(CCCCN)CC(=O)N(CC(=O)N(CC(N)=O)[C@@H](C)c1ccccc1)[C@@H](C)c1ccccc1)[C@@H](C)c1ccccc1)[C@@H](C)c1ccccc1)C(=O)CN(C(=O)CN(C(=O)CN(CCCCN)C(=O)CN(C(=O)CN(C(=O)CNCCCCN)[C@@H](C)c1ccccc1)[C@@H](C)c1ccccc1)[C@@H](C)c1ccccc1)[C@@H](C)c1ccccc1 [Peptoid 32, (NLysNspeNspe)2(NamyNspeNspe)(NLysNspeNspe)] | 2 | >100 | 100 | 6 | >100 µM | – | – | – | –
14 | C[C@@H](c1ccccc1)N(CC(N)=O)C(=O)CN(C(=O)CN(CCCCNC(=N)N)C(=O)CN(C(=O)CN(C(=O)CN(CCCCNC(=N)N)C(=O)CN(C(=O)CN(C(=O)CN(CCCCNC(=N)N)C(=O)CN(C(=O)CN(C(=O)CNCCCCNC(=N)N)[C@@H](C)c1ccccc1)[C@@H](C)c1ccccc1)[C@@H](C)c1ccccc1)[C@@H](C)c1ccccc1)[C@@H](C)c1ccccc1)[C@@H](C)c1ccccc1)[C@@H](C)c1ccccc1 [Peptoid 34, (NhArgNspeNspe)4] (H-[NhArg][Nspe][Nspe][NhArg][Nspe][Nspe][NhArg][Nspe][Nspe][NhArg][Nspe][Nspe]-NH2) | 1 | – | 13 | 1 | 6 µM | – | – | – | –
15 | CCCCCNCC(=O)N(CC(=O)N(CC(=O)N(CCCCNC(=N)N)CC(=O)N(CC(=O)N(CC(=O)N(CCCCC)CC(=O)N(CC(=O)N(CC(=O)N(CCCCNC(=N)N)CC(=O)N(CC(=O)N(CC(N)=O)[C@@H](C)c1ccccc1)[C@@H](C)c1ccccc1)[C@@H](C)c1ccccc1)[C@@H](C)c1ccccc1)[C@@H](C)c1ccccc1)[C@@H](C)c1ccccc1)[C@@H](C)c1ccccc1)[C@@H](C)c1ccccc1 [Peptoid 40, [(NamyNspeNspe)(NhArgNspeNspe)]2] (H-[NPentylGly][Nspe][Nspe][NhArg][Nspe][Nspe][NPentylGly][Nspe][Nspe][NhArg][Nspe][Nspe]-NH2) | 6 | >100 | 100 | 3 | >100 µM | – | – | not active | not active
16 | (NhArgNmfbNmfb)4 [Peptoid 36] | 2 | – | 13 | 2 | 13 µM | – | – | – | –
